In the METLIN SMRT retention time set (Domingo-Almenara et al. 2019):

Test: gradient 5% acetonitrile 3 min, to 50% in 2 min, to 85% in 15 min, held 3 min, 100 µL/min
Conditions: column: Zorbax Extend-C18 2.1 x 50 mm; eluents: water / acetonitrile, 0.1% formic acid
Outline: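 Data were gathered over 3 months by HPLC coupled to a quadrupole time-of-flight mass spectrometer, operated in positive and negative ionization mode. Mixtures of ~100 pure standards ran on a Zorbax Extend-C18 column (2.1 × 50 mm, 1.8 μm) at 100 μL/min, with water and acetonitrile each containing 0.1% formic acid and dead and dwell volumes of 40 μL and 900 μL. Retention time was read from adduct peaks picked by computer and checked manually.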

| SMILES | RP-LC retention time |
| --- | --- |
| CCc1ccc(NC(=O)CSc2nnc3c4cc(-c5ccc(F)cc5)nn4ccn23)cc1 | 984 s |
| CCCCN1C(=O)c2ccccc2C(C(=O)NCc2cccnc2)C12CCCCC2 (configuration not stated) | 678 s |
| O=S(=O)(c1ccc2c(c1)OCCO2)N1CCCn2nc(-c3cccc(Cl)c3)cc2C1 | 1040 s |
| COc1ccc(Cc2nnc3sc(-c4ccc(OC)cc4OC)nn23)cc1 | 1030 s |
| CS(=O)(=O)c1cccc(CNc2nc(Nc3ccc4c(c3)CCC(=O)N4)ncc2C(F)(F)F)c1 | 737 s |
| CC(=O)N1CCN(Cc2nc(-c3ccc(N4CCSCC4)nc3)no2)CC1 | 669 s |
| COc1cc(NC(=O)Cn2ccc3sc(C)cc3c2=O)cc(OC)c1 | 795 s |
| Cc1ccc(CNC(=O)N2[C@H]3CC[C@@H]2c2cncnc2C3)cc1 | 735 s |
| CCOc1ccccc1NC(=O)CN1C(=O)CCc2cc(Br)ccc21 | 1000 s |
| CCOc1ccccc1-c1noc(CN2C(=O)COc3ccc(S(=O)(=O)CC)cc32)n1 | 902 s |
| Cc1nc2c(NC(=O)c3ccc(Cl)cc3)cccn2n1 | 835 s |
| CN1C(=O)[C@H]2CN(Cc3cccc4[nH]ccc34)C[C@H]2C1=O | 552 s |
| CCOC(=O)C1CCN(C(=O)CN2CCN(Cc3ccc(C)cc3)C(=O)C2=O)CC1 | 710 s |
| CCCn1cc(CCNC(=O)Nc2cccc(C)c2)c2cccnc21 | 782 s |
| CCOC(=O)c1nc(NCc2cccc(Cl)c2)c2ccccc2n1 | 833 s |
| O=C(Cn1nc(C(=O)N2CCCC2)c2ccccc21)Nc1cccc(C(F)(F)F)c1 | 912 s |
| COC(=O)c1ncn2c1C(=O)N(C1CC1)C(C)(C(=O)NCc1cccc(C)c1)C2 (configuration not stated) | 658 s |
| O=C(Nc1cc(-c2ccccn2)no1)c1ccccc1F | 774 s |
| Cc1ccccc1-c1nnc(COc2ccc(NC(=O)c3cncc(Br)c3)cc2)o1 | 968 s |
| COC(=O)CC(=O)Nc1ccc(-c2nc(-c3ccccc3)co2)cc1 | 906 s |
| COc1ccc(CNC(=O)c2cn3cc(C)ccc3n2)cc1OC | 614 s |
| Cc1sc(-c2cc(C(F)(F)F)on2)cc1S(=O)(=O)N1CCCCC1 | 1210 s |
| CCCN1C(=O)c2c(C(=O)NCCc3ccccc3)ncn2CC1(C)C(=O)NC1CCCC1 (configuration not stated) | 860 s |

| SMILES | RP-LC retention time |
| --- | --- |
| CCOC(=O)c1cccc(Nc2c(-c3ccc(SC)cc3)nc3cnccn23)c1 | 950 s |
| COc1ccc(C)cc1NC(=O)c1nc(C)oc1C | 1020 s |
| COc1ccc(C2Cn3nnc(-c4nc(-c5ccccc5)no4)c3CO2)cc1 (configuration not stated) | 1100 s |
| CCC(=O)Nc1ccc(-c2nc(-c3ccc(Cl)cc3)no2)cc1 | 1130 s |
| COc1ccc(OC)c(CNC(=O)c2[nH]c(C)c(S(=O)(=O)N3CCCC3)c2C)c1 | 822 s |
| Cc1noc(C)c1C1CCCN1C(=O)Cc1ccccc1Cl (configuration not stated) | 806 s |
| O=c1c2ccccc2c(-c2nc(-c3cccnc3)no2)cn1-c1ccccc1 | 1010 s |
| Cc1ccnc(N2CCCC(C(=O)NCCSCc3ccco3)C2)n1 (configuration not stated) | 709 s |
| CCN(C(=O)Cn1ncc2c(c1=O)N(C)C(=O)CS2)c1cccc(C)c1 | 756 s |
| Cn1c(N2CCN(C(=O)c3c(F)cccc3F)CC2)cc(=O)n(C)c1=O | 648 s |
| CCOc1ccccc1CNC(=O)c1nc(N2CCOCC2)c2ccccc2n1 | 738 s |
| COc1ccc(OC)c(NC(=O)C2CC(=O)N(CCc3c[nH]c4ccc(F)cc34)C2)c1 (configuration not stated) | 794 s |
| CN1CC2(CCCC2)N(C(=O)COc2ccc(Cl)cc2)CC1=O | 799 s |
| CC(C)CC(NC(=O)c1ccc(F)cc1)C(=O)Nc1nc2ccccc2[nH]1 (configuration not stated) | 746 s |
| CCCCCCCNC(=O)C1CCCN(c2ncc(-c3ccc(F)cc3)cn2)C1 (configuration not stated) | 1260 s |
| Cc1ccc(C)c(Nc2c(-c3ccc(Cl)cc3)nc3ncccn23)c1 | 954 s |
| Fc1cccc(-c2nc(-c3ccc4c(c3)ncn4CCN3CCOCC3)no2)c1 | 642 s |
| CN(CC#N)C(=O)c1nn(C)c2c1COc1ccccc1-2 | 834 s |
| O=C(CSc1nnc2scc(-c3ccc(Cl)cc3)n12)Nc1ccccc1F | 839 s |
| COc1ccc(NC(=O)C2CCCN2S(=O)(=O)c2ccc(F)cc2)cc1 (configuration not stated) | 844 s |
| COc1ccc(-c2nc3cc(C)ccn3c2NC(=O)c2ccc(F)cc2)cc1OC | 597 s |
| COc1cccc(CNC(=O)c2cn3cc(Cl)ccc3n2)c1OC | 824 s |
| O=C(c1ccc2c(c1)CCC(=O)N2Cc1ccccc1)N1CCN(c2ccccc2F)CC1 | 967 s |

Other lines, results leading:

| RP-LC retention time | SMILES |
| --- | --- |
| 721 s | COCCn1cc(CCNC(=O)Nc2cccc(C)c2C)c2cccnc21 |
| 778 s | CCOC(=O)COc1cc(-c2ccc(C)cc2)nc2ccc(NC(=O)c3ccco3)cc12 |
| 543 s | CN1CCN(CCNC(=O)CCc2c(-c3ccc(Br)cc3)nc3ccccn23)CC1 |
| 827 s | Cc1nn2c(CNS(=O)(=O)c3ccccc3C)c(-c3ccccc3)nc2s1 |
| 726 s | Cc1ccc(CNC(=O)C2CCCN(c3nnc(C)c4c(C)n(-c5ccccc5)nc34)C2)cc1 (configuration not stated) |
| 1180 s | COc1ncccc1CNC(=O)c1cc(Cl)ccc1F |
| 888 s | CCCN1C(=O)CCc2cc(NC(=O)COc3ccc(F)cc3)ccc21 |
| 1170 s | COc1ccc(NC(=O)c2noc3c2CC(C)CC3)c(OC)c1 (configuration not stated) |
| 724 s | Cc1ccc(CN2C(=O)C3CCCCC3C2=O)cc1S(=O)(=O)N1CCN(c2ccccn2)CC1 (configuration not stated) |
| 1330 s | CCOc1ccccc1NC(=O)c1c(O)c2cccnc2n(-c2ccccc2)c1=O |
| 880 s | O=C(Cn1ccn2nc(-c3ccc(F)cc3)c(CO)c2c1=O)Nc1cc(F)cc(F)c1 |
| 830 s | O=C(NCc1csc(-c2cccs2)n1)C1CCN(S(=O)(=O)c2cccs2)CC1 |
| 856 s | Cc1ccc(NC(=O)c2cccn2Cc2noc(C)n2)cc1 |
| 797 s | Cc1cc(NC(=O)c2ccccc2)c(Cl)cc1N |
| 653 s | O=C(CCn1cnc2c(cnn2-c2ccccc2)c1=O)N1CCN(C(=O)c2ccco2)CC1 |
| 765 s | Cc1nn(Cc2ccc(C(=O)NC3CC3)cc2)c(C)c1S(=O)(=O)N1CCCCC1 |
| 900 s | CCC(C)CC(=O)N1CCCN(C2=NS(=O)(=O)C(c3ccc(C)cc3)=C2C)CC1 (configuration not stated) |
| 603 s | CC(C)(C)NCC(O)COc1cccc2[nH]c(=O)[nH]c12 (configuration not stated) |
| 673 s | CCOC(=O)C1CCN(C(=O)c2nc(-c3ccnc(N4CCCC4)c3)no2)CC1 |
| 611 s | CCCCN(CC)Cc1ccc(CNC(=O)C2CCCN(c3nnc(N4CCCC4=O)s3)C2)o1 (configuration not stated) |
| 873 s | COc1ccc(NC(=O)Cn2c(=O)n(-c3ccc(F)cc3)c(=O)c3c2cc(C)n3C)cc1Cl |
